Test results from BindingDB's records for PubMed 7908055 (Case Western Reserve University, 1994).

How the values were obtained:
[1] = target: 5-hydroxytryptamine receptor 2A (Rattus norvegicus, UniProt P14842)
D(2) dopamine receptor = D(2) dopamine receptor (Rattus norvegicus, UniProt P61169)
[2] = target: T1, 5-hydroxytryptamine receptor 2C (Rattus norvegicus, UniProt P08909)
T1 sequence (P08909 whole entry): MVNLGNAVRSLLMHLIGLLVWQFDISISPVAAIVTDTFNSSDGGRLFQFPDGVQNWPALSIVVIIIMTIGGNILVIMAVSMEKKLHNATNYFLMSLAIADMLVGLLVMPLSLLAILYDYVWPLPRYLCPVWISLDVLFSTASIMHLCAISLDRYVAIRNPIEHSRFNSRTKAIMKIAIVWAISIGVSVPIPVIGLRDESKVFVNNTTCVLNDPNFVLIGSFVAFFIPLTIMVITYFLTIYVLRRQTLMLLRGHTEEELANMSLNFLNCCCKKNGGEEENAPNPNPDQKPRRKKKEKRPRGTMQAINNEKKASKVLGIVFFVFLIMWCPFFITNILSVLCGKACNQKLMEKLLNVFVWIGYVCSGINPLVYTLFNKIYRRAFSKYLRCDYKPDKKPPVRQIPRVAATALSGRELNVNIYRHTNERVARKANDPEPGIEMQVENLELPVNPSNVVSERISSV

5-hydroxytryptamine receptor 2A, sequence (P14842 whole entry): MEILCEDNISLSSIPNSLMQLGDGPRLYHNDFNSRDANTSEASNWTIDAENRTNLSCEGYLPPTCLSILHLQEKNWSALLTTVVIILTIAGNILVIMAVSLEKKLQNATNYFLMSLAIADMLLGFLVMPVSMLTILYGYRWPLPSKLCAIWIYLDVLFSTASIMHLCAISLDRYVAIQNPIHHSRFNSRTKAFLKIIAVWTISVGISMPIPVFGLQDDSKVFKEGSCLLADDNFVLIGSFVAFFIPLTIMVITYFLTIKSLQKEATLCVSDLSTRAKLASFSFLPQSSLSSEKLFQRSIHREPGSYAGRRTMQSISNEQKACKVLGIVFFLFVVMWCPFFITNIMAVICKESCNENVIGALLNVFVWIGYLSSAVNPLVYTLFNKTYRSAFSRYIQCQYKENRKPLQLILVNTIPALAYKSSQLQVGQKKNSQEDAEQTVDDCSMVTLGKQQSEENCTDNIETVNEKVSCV
D(2) dopamine receptor, sequence (P61169 whole entry): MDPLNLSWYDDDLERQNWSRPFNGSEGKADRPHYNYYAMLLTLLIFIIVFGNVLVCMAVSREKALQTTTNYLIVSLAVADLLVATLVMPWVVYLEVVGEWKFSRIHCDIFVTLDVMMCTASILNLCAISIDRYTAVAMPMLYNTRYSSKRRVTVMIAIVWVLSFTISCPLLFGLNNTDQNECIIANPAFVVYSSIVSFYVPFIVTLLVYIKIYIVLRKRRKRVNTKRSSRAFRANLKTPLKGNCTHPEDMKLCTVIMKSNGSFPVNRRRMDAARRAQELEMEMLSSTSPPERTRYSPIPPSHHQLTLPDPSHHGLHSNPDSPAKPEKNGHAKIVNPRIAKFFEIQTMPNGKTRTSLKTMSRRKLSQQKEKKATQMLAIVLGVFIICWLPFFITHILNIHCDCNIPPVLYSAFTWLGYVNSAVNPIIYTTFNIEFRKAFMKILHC

SMILES | Ki [1] | Ki (D(2) dopamine receptor) | Ki [2]
CN1CCN(C2=Cc3cc(Cl)ccc3C(=CC#N)c3ccccc32)CC1 [CAS_79781-95-6] | 0.00063 µM | 0.0398 µM | 0.0251 µM
OCCN1CCN(CCCN2c3ccccc3Sc3ccc(Cl)cc32)CC1 [4-[3-(2-chlorophenothiazin-10-yl)propyl]-1-piperazineethanol] | 0.00251 µM | 0.00063 µM | 0.0501 µM
CCc1c(C)[nH]c2c1C(=O)C(CN1CCOCC1)CC2 (stereo unspecified) [Moban] | 0.501 µM | 0.0158 µM | 
CC1CN(CCCn2c3ccccc3c3ccccc32)CC(C)N1 (stereo unspecified) [9-[3-(3,5-dimethylpiperazin-1-yl)propyl]-9H-carbazole] | 5.01 µM |  | 
OC1(c2ccc(Cl)c(C(F)(F)F)c2)CCN(CCCC(c2ccc(F)cc2)c2ccc(F)cc2)CC1 [Penfluridol] | 0.0631 µM |  | 
CN1CCN(CCCN2c3ccccc3Sc3ccc(Cl)cc32)CC1 [2-chloro-10-[3-(4-methylpiperazin-1-yl)propyl]phenothiazine;ethane-1,2-disulfonic acid] | 0.0063 µM |  | 0.0794 µM
CN1CCN(C2=Nc3ccccc3Sc3ccc(Cl)cc32)CC1 [2-chloro-11-(4-methylpiperazin-1-yl)dibenzo[b,f][1,4]thiazepine] | 0.00079 µM |  | 
CN1CCN(C2=Nc3ccccc3Oc3ccc(Cl)cc32)CC1 [13-chloro-10-(4-methylpiperazin-1-yl)-2-oxa-9-azatricyclo[9.4.0.0^{3,8}]pentadeca-1(11),3,5,7,9,12,14-heptaene] |  | 0.00794 µM | 
O=c1[nH]c2ccccc2n1C1CCN(CCCC(c2ccc(F)cc2)c2ccc(F)cc2)CC1 [1-(1-(4,4-bis(4-fluorophenyl)butyl)piperidin-4-yl)-1H-benzo[d]imidazol-2(3H)-one] |  |  | > 10 µM
CC1CCN(CCCC(=O)c2ccc(F)cc2)CC1 [CAS_3575-80-2] |  | 0.2 µM | 1.26 µM
CCN1CCC[C@H]1CNC(=O)c1c(O)c(Cl)cc(Cl)c1OC [3,5-Dichloro-N-(1-ethyl-pyrrolidin-2-ylmethyl)-2-hydroxy-6-methoxy-benzamide (raclopride)] | 5.01 µM |  | 5.01 µM
CN1CCN(C2=Nc3ccccc3Cc3ccccc32)CC1 | 0.0126 µM | 0.501 µM | 
CCNC(=O)N1CCN(CCCC(c2ccc(F)cc2)c2ccc(F)cc2)CC1 | 0.0126 µM | 0.501 µM | 1.26 µM
CN1CCN(CC/C=C2/c3ccccc3Sc3ccc(S(=O)(=O)N(C)C)cc32)CC1 [MLS000028463] |  | 0.00063 µM | 1.58 µM
CN(C)CC/C=C1\c2ccccc2Sc2ccc(Cl)cc21 | 0.00039 µM |  | 
CN1CCN(C2=Nc3cscc3C(=CC#N)c3cscc32)CC1 [NSC_3086153] |  | 1.58 µM | 0.0631 µM
CC(=O)c1ccc2c(c1)N(CCCN1CCN(CCO)CC1)c1ccccc1S2 [CAS_5714-00-1] |  |  | 1 µM
O=C1CC2(CCCC2)CC(=O)N1CCCCN1CCN(c2nsc3ccccc23)CC1 [TIOSPERONE] |  | 0.0005 µM | 0.01 µM
CN1CCCCC1CCN1c2ccccc2Sc2ccc([S+](C)[O-])cc21 (stereo unspecified) |  | 0.00794 µM | 
CN1CCN(C2=Nc3cc(F)ccc3Cc3ccccc32)CC1 | 0.0063 µM | 0.316 µM | 0.0199 µM
